# Results: patent publication US5760027A, “Use of 7-alkylidene cephalosporins to inhibit elastase activity” (Research Corporation Technologies, Inc., priority 1996, dated 1998)
# Assays:
# [1] = target: porcine pancreatic elastase (PPE) (Sus scrofa, UniProt P00772); experiment: IC50 determination, inhibition of porcine pancreatic elastase (PPE); assay type: biochemical; settings: 5 min incubation with the inhibitor
# [2] = target: T1, human leukocyte elastase (HLE) (Homo sapiens, UniProt P08246); experiment: IC50 determination, inhibition of human leukocyte elastase (HLE), hydrolysis of N-(methoxysuccinyl)-L-alanyl-L-alanyl-L-prolyl-L-valine 4-nitroanilide at 410 nm; assay type: biochemical; settings: 5 min incubation with the inhibitor; pH 7.5 Tris buffer
# T1 construct: purchased Elastin Products Company, Inc. (Owensville, Mo.)
# T1 sequence (P08246 30-267): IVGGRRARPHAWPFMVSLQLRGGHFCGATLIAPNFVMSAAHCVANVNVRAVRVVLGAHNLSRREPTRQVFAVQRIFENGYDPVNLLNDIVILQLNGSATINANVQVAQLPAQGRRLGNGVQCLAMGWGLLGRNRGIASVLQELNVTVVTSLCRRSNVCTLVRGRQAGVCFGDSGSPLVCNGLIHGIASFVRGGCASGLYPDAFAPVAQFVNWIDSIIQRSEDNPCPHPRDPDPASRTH
# Chain of porcine pancreatic elastase (PPE) (P00772 27-266): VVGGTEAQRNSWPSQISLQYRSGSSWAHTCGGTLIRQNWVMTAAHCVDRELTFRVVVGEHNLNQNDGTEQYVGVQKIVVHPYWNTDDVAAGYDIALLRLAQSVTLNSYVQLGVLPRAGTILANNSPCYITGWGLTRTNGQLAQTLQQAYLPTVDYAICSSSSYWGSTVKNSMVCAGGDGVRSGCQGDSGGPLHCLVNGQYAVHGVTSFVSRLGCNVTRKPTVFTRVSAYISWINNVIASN
SMILES,IC50 [1] [µM],IC50 [2] [µM]
"CC(=O)OCC1=C(C(=O)OC(c2ccccc2)c2ccccc2)N2C(=O)C(=C=CC(C)(C)C)[C@H]2S(=O)(=O)C1 [Compound 5a, Benzhydryl 7-t-butylvinylidene cephalosporanate sulfone]",> 10,10.5
[2H]C(=C=C1C(=O)N2C(C(=O)OC(c3ccccc3)c3ccccc3)=C(COC(C)=O)CS(=O)(=O)[C@H]12)C(C)(C)C [Compound 5b],–,13.5
"CC(=O)OCC1=C(C(=O)OC(c2ccccc2)c2ccccc2)N2C(=O)/C(=C/c3ccccc3)[C@H]2S(=O)(=O)C1 [Compound 10, Benzhydryl 7-[(Z)-benzylidene]cephalosporanate sulfone]",> 10,8.9
"CC(=O)OCC1=C(C(=O)OC(c2ccccc2)c2ccccc2)N2C(=O)/C(=C\c3ccccc3)[C@H]2S(=O)(=O)C1 [Compound 12, Benzhydryl 7-[(E)-benzylidene]cephalosporanate sulfone]",> 10,6
"CC(=O)OCC1=C(C(=O)OC(c2ccccc2)c2ccccc2)N2C(=O)/C(=C/C(=O)OC(C)(C)C)[C@H]2SC1 [Compound 17, Benzhydryl 7-[(Z)-t-butoxycarbonylmethylene]cephalosporanate]",–,> 10
"CC(=O)OCC1=C(C(=O)OC(c2ccccc2)c2ccccc2)N2C(=O)/C(=C/C(=O)OC(C)(C)C)[C@H]2S(=O)(=O)C1 [Compound 18, Benzhydryl 7-[(Z)-(t-butoxycarbonyl)methylene]-cephalosporanate sulfone]",> 10,7.1
"CC(=O)OCC1=C(C(=O)OC(c2ccccc2)c2ccccc2)N2C(=O)/C(=C/c3ccccn3)[C@H]2S(=O)(=O)C1 [Compound 21, Benzhydryl 7-[(Z)-(2'-pyridyl)methylene]cephalosporanate sulfone]",> 10,> 10
"CC(=O)OCC1=C(C(=O)OC(c2ccccc2)c2ccccc2)N2C(=O)C(=C(Cl)Cl)[C@H]2S(=O)(=O)C1 [Compound 23, Benzhydryl 7-[dichloromethylene]cephalosporanate sulfone]",> 10,2.56
"COC(=O)/C=C1/C(=O)N2C(C(=O)OC(c3ccccc3)c3ccccc3)=C(COC(C)=O)CS(=O)(=O)[C@H]12 [Compound 25, Benzhydryl 7-[(Z)-(methoxycarbonyl)methylene]cephalosporanate sulfone]",> 10,8.9
"CON(C)C(=O)/C=C1/C(=O)N2C(C(=O)OC(c3ccccc3)c3ccccc3)=C(COC(C)=O)CS(=O)(=O)[C@H]12 [Compound 27, Benzhydryl 7-[(Z)-N-methoxy-N-methylaminocarbonylmethylene]cephalosporanatesulfone]",> 10,> 10
"CC(=O)/C=C1/C(=O)N2C(C(=O)OC(c3ccccc3)c3ccccc3)=C(COC(C)=O)CS(=O)(=O)[C@H]12 [Compound 29, Benzhydryl 7-[(Z)-acetylmethylene]cephalosporanate sulfone]",6,> 10
"CC(=O)OCC1=C(C(=O)OC(c2ccccc2)c2ccccc2)N2C(=O)/C(=C/C#N)[C@H]2S(=O)(=O)C1 [Compound 31, Benzhydryl 7-[(Z)-cyanomethylene]cephalosporanate sulfone]",–,0.49

# Continued, values first:
IC50 [1] [µM],IC50 [2] [µM],SMILES
> 10,> 10,"CC(=O)OCC1=C(C(=O)OC(c2ccccc2)c2ccccc2)N2C(=O)[C@@H](N)[C@H]2SC1 [Compound 1, Benzhydryl 7β-aminocephalosporanate]"
> 10,> 10,"CC(=O)OCC1=C(C(=O)OC(c2ccccc2)c2ccccc2)N2C(=O)C(=O)[C@H]2SC1 [Compound 2, Benzhydryl 7-oxocephalosporanate]"
5.5,> 10,"CC(=O)OCC1=C(C(=O)OC(c2ccccc2)c2ccccc2)N2C(=O)C(=C=CC(C)(C)C)[C@H]2SC1 [Compound 4, Benzhydryl 7-(t-butylvinylidene)cephalosporanate]"
> 10,5.4,"CC(=O)OCC1=C(C(=O)OC(c2ccccc2)c2ccccc2)N2C(=O)C(=C=CBr)[C@H]2SC1 [Compound 6, Benzhydryl 7-(-bromovinylidene)cephalosporanate]"
0.67,9,"C=C=C1C(=O)N2C(C(=O)OC(c3ccccc3)c3ccccc3)=C(COC(C)=O)CS[C@H]12 [Compound 7, Benzhydryl 7-vinylidenecephalosporanate]"
4.1,6.1,"C=C=C1C(=O)N2C(C(=O)OC(c3ccccc3)c3ccccc3)=C(COC(C)=O)CS(=O)(=O)[C@H]12 [Compound 8, Benzhydryl 7-vinylidenecephalosporanate sulfone]"
> 10,> 10,"CC(=O)OCC1=C(C(=O)OC(c2ccccc2)c2ccccc2)N2C(=O)/C(=C/c3ccccc3)[C@H]2SC1 [Compound 9, benzhydryl 7-[(Z)-benzylidene] cephalosporanate]"
> 10,> 10,"CC(=O)OCC1=C(C(=O)OC(c2ccccc2)c2ccccc2)N2C(=O)/C(=C\c3ccccc3)[C@H]2SC1 [Compound 11, Benzhydryl 7-[(E)-benzylidene]cephalosporanate]"
5.2,13.9,"CC(=O)OCC1=C(C(=O)OC(c2ccccc2)c2ccccc2)N2C(=O)/C(=C/C=O)[C@H]2SC1 [Compound 19, Benzhydryl 7-[(Z)-formylmethylene]cephalosporanate]"
> 10,> 10,"CC(=O)OCC1=C(C(=O)OC(c2ccccc2)c2ccccc2)N2C(=O)/C(=C/c3ccccn3)[C@H]2SC1 [Compound 20, Benzhydryl 7-[(Z)-(2'-pyridyl)methylene]cephalosporanate]"
> 10,> 10,"CC(=O)OCC1=C(C(=O)OC(c2ccccc2)c2ccccc2)N2C(=O)/C(=C/CO)[C@H]2SC1 [Compound 26, Benzhydryl 7-[(Z)-(hydroxymethyl)methylene]cephalosporanate]"
–,> 10,"CC(=O)OCC1=C(C(=O)OC(c2ccccc2)c2ccccc2)N2C(=O)/C(=C/C#N)[C@H]2SC1 [Compound 30, Benzhydryl 7-[(Z)-cyanomethylene]cephalosporanate]"
–,0.21,"COC(=O)/C(Br)=C1/C(=O)N2C(C(=O)OC(c3ccccc3)c3ccccc3)=C(COC(C)=O)CS[C@H]12 [Compound 32, Benzhydryl 7-{[(E)-bromo-(Z)-methoxycarbonyl]methylidene} cephalosporanate]"
> 10,> 10,"CC(=O)OCC1=C(C(=O)OC(c2ccccc2)c2ccccc2)N2C(=O)C[C@H]2SC1 [Compound 33, reference compound]"
–,5.35,"CO[C@H]1C(=O)N2C(C(=O)OC(c3ccccc3)c3ccccc3)=C(COC(C)=O)CS[C@H]12 [Compound 36, reference compound]"
–,0.28,"CO[C@H]1C(=O)N2C(C(=O)OC(c3ccccc3)c3ccccc3)=C(COC(C)=O)CS(=O)(=O)[C@H]12 [Compound 37, reference compound]"
